Measurements reported in ChEMBL document CHEMBL4507279, “Data for DCP probe BI-9627” (2021).

Tests used:
Details in all cases: Compound concentration 1000.0 nM
[1] = target: Dual specificity tyrosine-phosphorylation-regulated kinase 1A (Homo sapiens) (UniProt Q13627)
[2] = target: Peripheral plasma membrane protein CASK (Homo sapiens) (UniProt O14936)
[3] = target: Dual specificity tyrosine-phosphorylation-regulated kinase 2 (Homo sapiens) (UniProt Q92630)
[4] = target: Mitogen-activated protein kinase 4 (Homo sapiens) (UniProt P31152)
[5] = target: Serine/threonine-protein kinase BRSK1 (Homo sapiens) (UniProt Q8TDC3)
[6] = target: Casein kinase I isoform gamma-1 (Homo sapiens) (UniProt Q9HCP0)
[7] = target: RAC-gamma serine/threonine-protein kinase (Homo sapiens) (UniProt Q9Y243)
[8] = target: Receptor-interacting serine/threonine-protein kinase 1 (Homo sapiens) (UniProt Q13546)
[9] = target: Inhibitor of nuclear factor kappa-B kinase subunit beta (Homo sapiens) (UniProt O14920)
[10] = target: Ribosomal protein S6 kinase alpha-3 (Homo sapiens) (UniProt P51812)
[11] = target: Serine/threonine-protein kinase MARK1 (Homo sapiens) (UniProt Q9P0L2)
[12] = target: Serine/threonine-protein kinase ULK3 (Homo sapiens) (UniProt Q6PHR2)
[13] = target: Tyrosine-protein kinase ABL1 (Homo sapiens) (UniProt P00519)
[14] = target: Dual specificity mitogen-activated protein kinase kinase 1 (Homo sapiens) (UniProt Q02750)
[15] = target: Cyclin-dependent kinase 2 homolog (Plasmodium falciparum (isolate 3D7)) (UniProt P61075)
[16] = target: Platelet-derived growth factor receptor beta (Homo sapiens) (UniProt P09619)
[17] = target: Rhodopsin kinase GRK1 (Homo sapiens) (UniProt Q15835)
[18] = target: Serine/threonine-protein kinase DCLK2 (Homo sapiens) (UniProt Q8N568)
[19] = target: Phosphatidylinositol 5-phosphate 4-kinase type-2 gamma (Homo sapiens) (UniProt Q8TBX8)
[20] = target: TGF-beta receptor type-2 (Homo sapiens) (UniProt P37173)
[21] = target: Protein kinase C theta type (Homo sapiens) (UniProt Q04759)
[22] = target: MAP kinase-interacting serine/threonine-protein kinase 1 (Homo sapiens) (UniProt Q9BUB5)
[23] = target: SRSF protein kinase 2 (Homo sapiens) (UniProt P78362)
[24] = target: Homeodomain-interacting protein kinase 2 (Homo sapiens) (UniProt Q9H2X6)
[25] = target: Serine/threonine-protein kinase PLK3 (Homo sapiens) (UniProt Q9H4B4)
[26] = system: Hepatocyte growth factor receptor (Homo sapiens), P08581 [M1250T]
[27] = target: Insulin receptor (Homo sapiens) (UniProt P06213)
[28] = target: Serine/threonine-protein kinase VRK2 (Homo sapiens) (UniProt Q86Y07)
[29] = target: Proto-oncogene tyrosine-protein kinase receptor Ret (Homo sapiens) (UniProt P07949)
[30] = target: TGF-beta receptor type-1 (Homo sapiens) (UniProt P36897)
[31] = system: Receptor-type tyrosine-protein kinase FLT3 (Homo sapiens), P36888 [UNDEFINED MUTATION]
[32] = target: cGMP-dependent protein kinase 1 (Homo sapiens) (UniProt Q13976)
[33] = target: Serine/threonine-protein kinase tousled-like 1 (Homo sapiens) (UniProt Q9UKI8)
[34] = target: Casein kinase I isoform gamma-2 (Homo sapiens) (UniProt P78368)
[35] = target: Ribosomal protein S6 kinase alpha-4 (Homo sapiens) (UniProt O75676)
[36] = target: Ribosomal protein S6 kinase alpha-6 (Homo sapiens) (UniProt Q9UK32)
[37] = target: Phosphatidylinositol 4,5-bisphosphate 3-kinase catalytic subunit delta isoform (Homo sapiens) (UniProt O00329)
[38] = target: Serine/threonine-protein kinase TNNI3K (Homo sapiens) (UniProt Q59H18)
[39] = target: Wee1-like protein kinase 2 (Homo sapiens) (UniProt P0C1S8)
[40] = target: Serine/threonine-protein kinase MRCK alpha (Homo sapiens) (UniProt Q5VT25)
[41] = target: Serine/threonine-protein kinase 3 (Homo sapiens) (UniProt Q13188)
[42] = target: Tyrosine-protein kinase BTK (Homo sapiens) (UniProt Q06187)
[43] = target: Death-associated protein kinase 1 (Homo sapiens) (UniProt P53355)
[44] = target: Serine/threonine-protein kinase ICK (Homo sapiens) (UniProt Q9UPZ9)
[45] = target: Ephrin type-A receptor 8 (Homo sapiens) (UniProt P29322)
Chain of Ephrin type-A receptor 8 (Homo sapiens) (P29322 whole entry): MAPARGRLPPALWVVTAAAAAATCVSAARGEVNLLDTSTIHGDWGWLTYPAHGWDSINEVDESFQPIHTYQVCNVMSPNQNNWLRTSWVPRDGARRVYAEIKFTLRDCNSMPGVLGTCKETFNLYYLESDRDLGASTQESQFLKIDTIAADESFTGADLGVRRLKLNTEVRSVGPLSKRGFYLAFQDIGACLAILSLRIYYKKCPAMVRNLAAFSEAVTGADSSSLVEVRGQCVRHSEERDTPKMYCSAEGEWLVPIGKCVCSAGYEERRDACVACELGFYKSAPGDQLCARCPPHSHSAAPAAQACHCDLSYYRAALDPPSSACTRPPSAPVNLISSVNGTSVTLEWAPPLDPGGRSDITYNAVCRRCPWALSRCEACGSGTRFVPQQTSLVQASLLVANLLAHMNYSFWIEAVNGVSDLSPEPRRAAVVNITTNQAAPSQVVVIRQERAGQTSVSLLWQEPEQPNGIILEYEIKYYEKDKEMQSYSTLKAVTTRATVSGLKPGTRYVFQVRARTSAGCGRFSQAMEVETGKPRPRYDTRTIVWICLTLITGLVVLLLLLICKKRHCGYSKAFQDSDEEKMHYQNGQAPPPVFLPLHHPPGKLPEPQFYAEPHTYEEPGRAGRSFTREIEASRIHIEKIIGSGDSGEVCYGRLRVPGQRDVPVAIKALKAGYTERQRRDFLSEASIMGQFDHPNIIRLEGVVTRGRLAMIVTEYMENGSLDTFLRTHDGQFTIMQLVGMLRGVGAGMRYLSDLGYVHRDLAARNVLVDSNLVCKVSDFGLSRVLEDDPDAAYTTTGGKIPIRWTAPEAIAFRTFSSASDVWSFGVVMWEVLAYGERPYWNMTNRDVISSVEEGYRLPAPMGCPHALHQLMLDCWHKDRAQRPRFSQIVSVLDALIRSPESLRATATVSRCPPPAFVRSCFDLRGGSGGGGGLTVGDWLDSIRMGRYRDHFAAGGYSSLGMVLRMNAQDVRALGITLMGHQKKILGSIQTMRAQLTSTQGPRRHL

Chain of Serine/threonine-protein kinase VRK2 (Homo sapiens) (Q86Y07 whole entry): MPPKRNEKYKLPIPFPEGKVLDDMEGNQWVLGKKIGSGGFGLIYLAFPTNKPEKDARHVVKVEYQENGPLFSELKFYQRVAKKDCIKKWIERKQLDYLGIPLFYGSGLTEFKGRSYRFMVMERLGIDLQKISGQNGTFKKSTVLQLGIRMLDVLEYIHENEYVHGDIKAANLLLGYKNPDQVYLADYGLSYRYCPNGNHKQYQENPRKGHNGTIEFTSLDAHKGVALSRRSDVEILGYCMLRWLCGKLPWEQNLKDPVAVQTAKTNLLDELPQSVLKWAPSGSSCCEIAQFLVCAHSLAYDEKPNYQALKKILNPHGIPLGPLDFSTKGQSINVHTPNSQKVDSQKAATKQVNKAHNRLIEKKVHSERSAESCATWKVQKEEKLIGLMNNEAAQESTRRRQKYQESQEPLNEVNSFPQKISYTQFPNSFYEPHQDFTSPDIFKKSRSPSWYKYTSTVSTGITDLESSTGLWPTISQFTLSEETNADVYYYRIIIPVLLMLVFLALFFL
Chain of Serine/threonine-protein kinase TNNI3K (Homo sapiens) (Q59H18 whole entry): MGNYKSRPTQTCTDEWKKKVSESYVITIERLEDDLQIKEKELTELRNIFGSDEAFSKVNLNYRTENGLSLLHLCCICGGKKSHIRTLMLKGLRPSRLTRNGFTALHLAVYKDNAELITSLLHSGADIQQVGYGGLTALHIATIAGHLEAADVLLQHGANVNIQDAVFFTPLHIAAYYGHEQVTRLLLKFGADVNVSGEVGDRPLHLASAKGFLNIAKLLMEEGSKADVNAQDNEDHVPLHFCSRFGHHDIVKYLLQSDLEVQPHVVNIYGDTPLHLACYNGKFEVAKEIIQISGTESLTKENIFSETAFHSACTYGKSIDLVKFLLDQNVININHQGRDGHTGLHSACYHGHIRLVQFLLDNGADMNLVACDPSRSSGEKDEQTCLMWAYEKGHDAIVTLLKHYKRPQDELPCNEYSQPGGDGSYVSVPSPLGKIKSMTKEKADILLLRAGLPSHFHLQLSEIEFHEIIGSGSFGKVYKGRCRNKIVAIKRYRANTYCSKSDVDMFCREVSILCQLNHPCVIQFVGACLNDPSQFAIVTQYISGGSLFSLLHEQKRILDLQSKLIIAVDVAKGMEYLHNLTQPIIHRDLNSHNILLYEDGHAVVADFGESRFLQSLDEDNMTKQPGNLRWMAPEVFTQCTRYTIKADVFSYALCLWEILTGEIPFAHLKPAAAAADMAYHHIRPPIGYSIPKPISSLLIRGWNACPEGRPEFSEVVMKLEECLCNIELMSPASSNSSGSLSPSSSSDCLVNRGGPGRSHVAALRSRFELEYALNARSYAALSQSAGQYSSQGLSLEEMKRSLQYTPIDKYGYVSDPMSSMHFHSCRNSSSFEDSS
Chain of Ribosomal protein S6 kinase alpha-6 (Homo sapiens) (Q9UK32 whole entry, canonical isoform): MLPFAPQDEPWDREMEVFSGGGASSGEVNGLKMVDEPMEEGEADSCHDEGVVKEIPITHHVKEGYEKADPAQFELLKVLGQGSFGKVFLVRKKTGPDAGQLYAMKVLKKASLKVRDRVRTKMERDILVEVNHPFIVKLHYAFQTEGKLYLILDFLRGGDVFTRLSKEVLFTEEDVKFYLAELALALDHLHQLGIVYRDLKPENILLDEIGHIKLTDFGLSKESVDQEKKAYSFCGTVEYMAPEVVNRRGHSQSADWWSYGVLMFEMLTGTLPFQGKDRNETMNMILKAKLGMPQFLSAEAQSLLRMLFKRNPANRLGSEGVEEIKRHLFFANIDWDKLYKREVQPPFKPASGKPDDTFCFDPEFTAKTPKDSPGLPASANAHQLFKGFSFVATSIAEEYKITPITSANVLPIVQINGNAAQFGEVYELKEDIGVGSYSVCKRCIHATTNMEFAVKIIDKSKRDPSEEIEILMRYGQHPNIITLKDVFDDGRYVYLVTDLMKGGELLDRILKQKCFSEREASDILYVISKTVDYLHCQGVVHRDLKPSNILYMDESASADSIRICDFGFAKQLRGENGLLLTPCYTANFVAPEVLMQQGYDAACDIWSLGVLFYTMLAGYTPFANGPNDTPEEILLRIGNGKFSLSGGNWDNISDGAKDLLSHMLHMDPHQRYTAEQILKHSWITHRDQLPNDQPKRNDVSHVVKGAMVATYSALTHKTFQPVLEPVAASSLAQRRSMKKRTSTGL
Chain of Cyclin-dependent kinase 2 homolog (Plasmodium falciparum (isolate 3D7)) (P61075 whole entry): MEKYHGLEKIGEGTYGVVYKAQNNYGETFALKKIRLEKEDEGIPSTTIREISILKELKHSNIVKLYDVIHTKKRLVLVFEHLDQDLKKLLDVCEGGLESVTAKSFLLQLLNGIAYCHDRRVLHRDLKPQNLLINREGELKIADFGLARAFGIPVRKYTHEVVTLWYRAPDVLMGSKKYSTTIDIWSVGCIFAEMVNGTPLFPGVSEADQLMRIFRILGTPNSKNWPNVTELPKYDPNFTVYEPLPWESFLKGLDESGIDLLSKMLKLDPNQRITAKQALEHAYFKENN
Chain of Homeodomain-interacting protein kinase 2 (Homo sapiens) (Q9H2X6 whole entry, looked up): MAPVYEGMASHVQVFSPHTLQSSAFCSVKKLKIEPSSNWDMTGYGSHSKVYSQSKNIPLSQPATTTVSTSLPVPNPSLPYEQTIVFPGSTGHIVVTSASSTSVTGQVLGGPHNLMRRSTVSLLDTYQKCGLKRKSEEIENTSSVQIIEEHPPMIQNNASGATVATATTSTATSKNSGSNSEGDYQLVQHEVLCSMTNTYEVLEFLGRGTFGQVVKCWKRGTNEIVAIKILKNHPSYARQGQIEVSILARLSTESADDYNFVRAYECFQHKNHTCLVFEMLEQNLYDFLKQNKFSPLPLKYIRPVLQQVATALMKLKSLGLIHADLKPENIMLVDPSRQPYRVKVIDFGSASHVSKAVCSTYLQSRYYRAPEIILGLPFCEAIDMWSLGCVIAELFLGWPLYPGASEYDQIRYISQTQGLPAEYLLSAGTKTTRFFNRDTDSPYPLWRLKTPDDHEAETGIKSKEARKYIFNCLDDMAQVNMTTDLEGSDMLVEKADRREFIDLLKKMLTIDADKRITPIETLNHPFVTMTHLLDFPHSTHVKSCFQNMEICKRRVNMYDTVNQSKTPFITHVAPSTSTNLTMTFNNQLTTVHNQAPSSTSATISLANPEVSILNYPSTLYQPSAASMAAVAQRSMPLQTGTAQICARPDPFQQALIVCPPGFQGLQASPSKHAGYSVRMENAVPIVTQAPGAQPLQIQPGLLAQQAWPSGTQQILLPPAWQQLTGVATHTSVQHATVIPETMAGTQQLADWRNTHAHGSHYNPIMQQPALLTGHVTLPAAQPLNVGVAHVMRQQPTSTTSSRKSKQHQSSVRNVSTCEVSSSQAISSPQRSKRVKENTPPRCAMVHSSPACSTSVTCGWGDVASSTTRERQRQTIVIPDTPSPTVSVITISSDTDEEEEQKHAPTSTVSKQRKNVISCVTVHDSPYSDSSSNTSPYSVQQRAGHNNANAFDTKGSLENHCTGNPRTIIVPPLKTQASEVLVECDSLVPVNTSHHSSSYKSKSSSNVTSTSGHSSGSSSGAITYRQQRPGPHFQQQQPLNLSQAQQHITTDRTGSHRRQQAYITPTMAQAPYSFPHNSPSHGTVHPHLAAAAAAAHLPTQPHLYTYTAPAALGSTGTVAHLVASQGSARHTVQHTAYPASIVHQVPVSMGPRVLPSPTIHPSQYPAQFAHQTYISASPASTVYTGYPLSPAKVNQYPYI
Chain of Dual specificity mitogen-activated protein kinase kinase 1 (Homo sapiens) (Q02750 whole entry): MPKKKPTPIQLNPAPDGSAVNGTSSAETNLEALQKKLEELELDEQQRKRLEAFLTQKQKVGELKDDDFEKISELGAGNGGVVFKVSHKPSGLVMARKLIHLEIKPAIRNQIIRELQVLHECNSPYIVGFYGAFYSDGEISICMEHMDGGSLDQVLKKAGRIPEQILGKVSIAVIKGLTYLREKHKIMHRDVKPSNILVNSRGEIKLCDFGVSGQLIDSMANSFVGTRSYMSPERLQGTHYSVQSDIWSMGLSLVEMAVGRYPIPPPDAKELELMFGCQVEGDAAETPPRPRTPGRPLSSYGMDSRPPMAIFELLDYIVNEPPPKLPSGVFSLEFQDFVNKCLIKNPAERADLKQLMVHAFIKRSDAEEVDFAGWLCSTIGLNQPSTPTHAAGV

Molecule CC(=O)N1CCC(c2ccc(C(=O)NC3=NCCN3)cc2C(F)(F)F)CC1 [BI 0054] has a residual activity [1] of 74%, a residual activity [2] of 85% and a residual activity [3] of 93%. The residual activity [4] was 87%, the residual activity [5] was 100% and the residual activity [6] was 95%. It also gave a residual activity [7] of 100%, a residual activity [8] of 100% and a residual activity [9] of 85%. The residual activity [10] was 99%, the residual activity [11] was 100% and the residual activity [12] was 89%. The residual activity [13] was 95%, the residual activity [14] was 100% and the residual activity [15] was 100%. The residual activity [16] was 95%, the residual activity [17] was 95% and the residual activity [18] was 88%. For the same molecule, the residual activity [19] was 94%, the residual activity [20] was 100% and the residual activity [21] was 93%. For the same molecule, the residual activity [22] was 100%, the residual activity [23] was 100% and the residual activity [24] was 100%. For the same molecule, the residual activity [25] was 78%, the residual activity [26] was 84% and the residual activity [27] was 100%. It also gave a residual activity [28] of 100%, a residual activity [29] of 100% and a residual activity [30] of 100%. It also gave a residual activity [31] of 88%, a residual activity [32] of 100% and a residual activity [33] of 100%. The residual activity [34] was 100%, the residual activity [35] was 81% and the residual activity [36] was 98%. It also gave a residual activity [37] of 100%, a residual activity [38] of 98% and a residual activity [39] of 100%. The residual activity [40] was 100%, the residual activity [41] was 100% and the residual activity [42] was 97%. For the same molecule, the residual activity [43] was 100%, the residual activity [44] was 88% and the residual activity [45] was 93%.
Molecule CC(=O)N1CCC(c2ccc(C(=O)NC(=N)N)cc2C(F)(F)F)CC1 [BI 9627] has a residual activity [1] of 74%, a residual activity [2] of 100% and a residual activity [3] of 89%. The residual activity [4] was 100%, the residual activity [5] was 87% and the residual activity [6] was 100%. For the same molecule, the residual activity [7] was 100%, the residual activity [8] was 100% and the residual activity [9] was 100%. The residual activity [10] was 100%, the residual activity [11] was 100% and the residual activity [12] was 80%. It also gave a residual activity [13] of 93%, a residual activity [14] of 97% and a residual activity [15] of 100%. For the same molecule, the residual activity [16] was 100%, the residual activity [17] was 98% and the residual activity [18] was 93%. The residual activity [19] was 100%, the residual activity [20] was 100% and the residual activity [21] was 91%. The residual activity [22] was 100%, the residual activity [23] was 0% and the residual activity [24] was 100%. For the same molecule, the residual activity [25] was 82%, the residual activity [26] was 100% and the residual activity [27] was 100%. The residual activity [28] was 100%, the residual activity [29] was 100% and the residual activity [30] was 100%. It also gave a residual activity [31] of 80%, a residual activity [32] of 100% and a residual activity [33] of 100%. For the same molecule, the residual activity [34] was 100%, the residual activity [35] was 100% and the residual activity [36] was 100%. For the same molecule, the residual activity [37] was 34%, the residual activity [38] was 100% and the residual activity [39] was 100%. For the same molecule, the residual activity [40] was 100%, the residual activity [41] was 100% and the residual activity [42] was 100%. The residual activity [43] was 100%, the residual activity [44] was 94% and the residual activity [45] was 100%.
